Reference: patent US20220073642A1, “METHODS OF USING SURUFATINIB IN TREATING ADVANCED PANCREATIC AND EXTRA-PANCREATIC NEUROENDOCRINE TUMORS” (HUTCHISON MEDIPHARMA LIMITED, priority 2020, published 2022)
Where “and” joins values, the source holds several entries; their conditions need not be identical. Equal values may be shown once.

How the values were obtained:
[1] = Solubility of surufatinib; assay type: physicochemical
Text: As used here, the term “surufatinib” (formerly named sulfatinib”)refers to N-(2-(dimethylamino)ethyl)-1-(3-(4-(2-methyl-1H-indol-5-yloxy)pyrimidin-2-ylamino)phenyl)methanesulfonamide or N-(2-(dimethylamino)ethyl)-1-(3-(4-(2-methyl-1H-indol-5-yloxy)pyrimidin-2-ylamino)phenyl)methanesulfonamide. Surufatinib is a small-molecule kinase inhibitor which mainly acts on VEGFRs-1, 2, 3, the FGFR1 and CSF1R. Surufatinib is a study drug formulated as an odorless, white or off-white powder in capsules, with strengths of 50 mg and 200 mg. […] Herein, “surufatinib” may be referred to as “drug,” “active agent,” “a therapeutically active agent,” or “API.”

[2] = SANET-ep Phase III study, safety and exposure (NCI CTCAE v4.03); assay type: in vivo, human; settings: N = 129
Experimental: (§1) This study is a randomized, double-blind, placebo-controlled, multi-center Phase III study to assess the efficacy and safety of Surufatinib in treating advanced extra-pancreatic neuroendocrine tumors.
(§2) Surufatinib, 300 mg, once daily (QD), orally
(§3) Continuous administration (every 4 weeks as a treatment cycle).

[3] = SANET-p Phase III study, safety and exposure (NCI CTCAE v4.03); settings: N = 113
Text: SANET-p (NCT02589821) is a randomized, double-blind, placebo-controlled Phase III study evaluating the efficacy and safety of surufatinib compared to placebo in patients with progressive, advanced (unresectable local progression or distant metastasis), well-differentiated pancreatic neuroendocrine tumors.
Continuous administration (every 4 weeks as a treatment cycle). Surufatinib can be taken with or without food and should be taken as a single administration per day. It is recommended to take the drug at the same time every day. If the patient vomits after dosing surufatinib, there is no need to make up.
During the treatment, physician should closely monitor the patients and adjust dosage according to the safety and tolerability of individual patients, including dose interruption, dose reduction or permanently discontinue treatment. The dose adjustment should follow the guidance of interruption first and then dose reduction.

[4] = tested on: NETs; experiment: Phase I dose escalation clinical study, extension stage (NCT02133157); assay type: in vivo, human; settings: 21 efficacy evaluable patients with NETs
Text: This multi-center, open-label, dose-escalation phase I study investigated the safety, pharmacokinetic characteristics, and preliminary anti-tumor activity of surufatinib in patients with advanced solid tumors. The primary objective was to determine the maximum tolerated dose (MTD), recommended phase II trial dose (RPTD), and the safety profile of Surufatinib when administered to patients with advanced malignant solid tumors. A secondary objective was to evaluate the pharmacokinetic profile of Surufatinib, and exploratory objectives included evaluating the ORR among patients given Surufatinib therapy and determining whether biomarkers for angiogenesis might reflect any clinical efficacy shown by Surufatinib. A modified Fibonacci 3+3 construct was used to design this dose escalation study and determine the MTD of Surufatinib.
In addition, similar efficacy trends have also been shown in the Phase Ib/II study of patients with NETs (Jianming Xu et al. Clin Cancer Res. 25(12):3486-3494). […] Therefore, further clinical investigation of Surufatinib is valuable.

[5] = tested on: advanced extra-pancreatic neuroendocrine tumors; experiment: SANET-ep Phase III study, efficacy (RECIST 1.1); assay type: in vivo, human
Text: as §1
The targeted population are progressive, locally advanced or distant metastatic extra-pancreatic NETs (including, but not limited to: lungs, thymus gland and gastrointestinal origins like stomach, duodenum, liver, jejunum, ileum, colon, caecum, vermiform appendix and rectum, and unknown origin) patients with no possibility of radical resection of tumor, and of pathologically with low or intermediate grade (G1 or G2). For Gastrointestinal neuroendocrine tumors (GI-NETs), G1 is defined as <2 mitoses/10 high-power field
(§4) [HPF] and/or <3% Ki-67 index; G2 is defined as 2-20/10 HPF and/or 3-20% Ki-67 index; for NETs originating from the lung and thymus gland, G1 is defined as <2 mitoses/10 HPF and no necrosis; G2 is defined as 2-10/10 HPF and/or foci of necrosis. NETs from origin other than GI-NET, lung and thymus, or from unknown origins should be graded according to the GI-NET grading criteria. If the mitotic ratio and Ki-67 index correspond to different grade, the higher grade should be used to assign classification. All patients must provide tumor samples for central pathology review to check as of whether the diagnostics and grade score comply with inclusion criteria. Patients must have radiological documentation of progression of disease within 12 months prior to randomization. Patients must have previously progressed no more than two types of systemic anti-tumor therapy, including long-acting somatostatin analogs (SSAs), interferon, PRRT (peptide receptor radionuclide therapy), mammalian target of rapamycin (mTOR) inhibitors or chemotherapy (all chemotherapies are deemed as a single therapy regardless of drug or time); patients who are unable or unwilling to receive such treatments are also eligible if all other criteria are met.
Approximately 273 patients will be randomly assigned (in 2:1 ratio) to the following treatment groups based on interactive web response system IWRS:
as §2, §3
(§5) According to the randomized result, the patients will receive continuous oral treatment, every 4-week treatment cycle until progression of disease occurs, intolerable toxicity or other protocol-specified end-of-treatment criteria is met.
(§6) In accordance with RECIST 1.1, the tumor should be assessed every 8 weeks (±3 days) within the first year and every 12 weeks (±3 days) after the patient has been treated for more than one year.
(§7) 1) Primary therapeutic endpoint: PFS (according to RECIST 1.1 criteria)
(§8) 2) Secondary therapeutic endpoint: Objective Response Rate of the tumor (ORR), Disease Control Rate (DCR), Duration of Response (DoR), Time to Response (TTR) and Overall Survival (OS) (according to RECIST 1.1 criteria)

[6] = tested on: advanced pancreatic NETs; experiment: phase 1 study of surufatinib in patients from the United States; assay type: in vivo, human
Experimental: Although this trial was conducted fully in a Chinese patient population, the results appear to be applicable to Western patients. Encouraging results have been reported from an ongoing phase 1 study of surufatinib in patients from the United States with heavily treated advanced pancreatic NETs (4 median prior lines of therapy), with an objective response rate of 25.0% (4/16: 3 confirmed partial response and 1 unconfirmed partial response). The safety profile observed in this Western patient population was similar to those observed in the SANET-p trial, as well as in other clinical studies of surufatinib in NETs patients.
As compared with other trials involving patients with extra-pancreatic NETs, the population enrolled in this study was heterogenous. In addition, only Chinese patients were enrolled in this study, which may limit the extrapolation of the results to other populations: however, historically no ethnic differences in the efficacy of antiangiogenic agents for NETs have been reported.

[7] = tested on: advanced, well-differentiated pancreatic neuroendocrine tumors; experiment: SANET-p Phase III study, efficacy (RECIST 1.1); assay type: in vivo, human; settings: for Odds ratio, Disease control rate / Odds ratio, Objective response rate: vs placebo
Text: as §4, with “The targeted population are progressive, locally advanced or distant metastatic, low- or intermediate grade (G1 or G2) pancreatic NETs patients. G1 is defined as <2 mitoses/10 high-power field [HPF]” for “[HPF]”, “index.” for “index; for NETs originating from the lung and thymus gland, G1 is defined as <2 mitoses/10 HPF and no necrosis; G2 is defined as 2-10/10 HPF and/or foci of necrosis. NETs from origin other than GI-NET, lung and thymus, or from unknown origins should be graded according to the GI-NET grading criteria.”
Approximately 195 patients will be randomly assigned (in 2:1 ratio) to the following treatment groups based on interactive web response system IWRS:
as §2, §3, §5, §6, §7, §8

[8] = treatment-related AE, safety population
[9] = treatment-related AE, safety set
[10] = ITT set, 95% CI, listed as surufatinib

## Cc1cc2cc(Oc3ccnc(Nc4cccc(CS(=O)(=O)NCCN(C)C)c4)n3)ccc2[nH]1 [Surufatinib, N-(2-(dimethylamino)ethyl)-1-(3-((4-((2-methyl-1H-indol-5-yl)oxy)pyrimidin-2-yl)amino)phenyl)-methanesulfonamide]
[1]; methyl alcohol or ethyl alcohol
  solubility in methyl alcohol or ethyl alcohol: slightly soluble
[1]; water
  solubility in water: insoluble
[2]
  Discontinuation due to proteinuria: 1.6%
  Discontinuation due to urine protein present: 2.3%
  hypertension resulting in dose interruption or reduction: 15.5%
  proteinuria resulting in dose interruption or reduction: 29.5%
  treatment discontinuation for adverse events: 14.7%
[2]; safety population
  Treatment-related adverse event, any grade: 97.7%
[2]; [8]
  ALT increased, ≥Grade 3: 3.1%
  AST increased, ≥Grade 3: 3.9%
  Anemia, ≥Grade 3: 4.7%
  Hyperbilirubinemia, ≥Grade 3: 3.9%
  Hypertension, ≥Grade 3: 36.4%
  Protein urine present, ≥Grade 3: 3.9%
  Proteinuria, ≥Grade 3: 19.4%
[3]
  on-treatment deaths attributed to adverse events: Two
[3]; [9]
  Arthralgia, ≥Grade 3: 0 n
  Back pain, ≥Grade 3: 0 n
  Bilirubin conjugated increased, ≥Grade 3: 0 n
  Blood creatinine increased, ≥Grade 3: 0 n
  Blood lactate dehydrogenase increased, ≥Grade 3: 0 n
  Blood thyroid stimulating hormone increased, ≥Grade 3: 0 n
  Decreased appetite, ≥Grade 3: 0 n
  Dizziness, ≥Grade 3: 0 n
  Fatigue, ≥Grade 3: 0 n
  Haemoglobin increased, ≥Grade 3: 0 n
  Headache, ≥Grade 3: 0 n
  Hyperbilirubinaemia, ≥Grade 3: 0 n
  Hypercholesterolaemia, ≥Grade 3: 0 n
  Hypoalbuminaemia, ≥Grade 3: 0 n
  Hypothyroidism, ≥Grade 3: 0 n
  Nausea, ≥Grade 3: 0 n
  Occult blood positive, ≥Grade 3: 0 n
[4]
  DCR: 85.7%
  ORR: 38.1%
  not evaluable for response: 3 patients
  patients achieved PR: 8 patients
  patients achieved SD: 10 patients
[5]; BIIRC-assessed
  Duration of response: 5.6 months
  Time to response: 2.9 months
[5]; BIIRC-assessed, N = 126
  Disease control rate: 77.8%
  objective response rate: 7.9%
[5]; Investigator-assessed, N = 126
  Best overall response: Partial response: 13 n
  Disease control rate: 86.5%
  objective response rate: 10.3%
[5]; N = 129, 300 mg QD orally
  median progression-free survival as assessed by the investigators: 9.2 months
[5]; in vivo
  progression-free survival HR vs placebo, BIIRC-assessment: 0.66
  progression-free survival HR vs placebo, investigators: 0.33
  progression-free survival HR vs placebo, post-hoc adjudicated BIIRC results: 0.57
[5]; investigator-assessed
  Duration of response: 5.6 months
  Time to response: 3.7 months
[5]; investigators
  reduction of the risk of disease progression or death compared with placebo: 67%
[5]; post-hoc subgroup analysis
  HR for median progression-free survival, NETs of unknown or uncommon tumor origins: 0.50
[5]; sensitivity analysis
  median progression-free survival, BIIRC-assessment: 7.4 months
[5]; subgroup, 7.8% of patients
  median progression-free survival, patients previously treated with everolimus: 7.4 months
[6]; advanced pancreatic NETs, 2/15
  objective response rate: 13.3%
[6]; advanced pancreatic NETs, 11/15
  Disease control rate: 73.3%
[6]; heavily treated advanced pancreatic NETs, 4/16 (3 confirmed, 1 unconfirmed partial response)
  objective response rate: 25.0%
[7]; BIIRC-assessed
  Duration of response: 15.2 months
  Time to response: 3.9 months
  Odds ratio, Disease control rate: 2.5
  Odds ratio, Objective response rate: 8.8
[7]; BIIRC-assessed, N = 104
  Best overall response: Non-complete response, non-progressive disease: 0 n
[7]; ITT set, N = 113
  PFS (BIIRC assessment), median: 13.9 month
[7]; ITT set, N = 113, 300 mg QD orally
  PFS (Investigator's assessment), median: 10.9 month
[7]; ITT set, 95% CI
  PFS (BIIRC assessment), HR (Surufatinib/Placebo): 0.339 (0.209, 0.549)
  PFS (Investigator's assessment), HR (Surufatinib/Placebo): 0.491 (0.319, 0.755)
[7]; [10]
  PFS (BIIRC assessment), HR (Surufatinib/Placebo): 0.34
  PFS (Investigator's assessment), HR (Surufatinib/Placebo): 0.49
[7]; Table 4, N = 15
  DoR, median: 15.2 month
  TTR, median: 3.9 month
[7]; interim ITT set, N = 104
  Disease control rate, BIIRC-assessed: 84.6%
  Disease control rate, investigator-assessed: 80.8%
  Objective response rate, BIIRC-assessed: 14.4%
  Objective response rate, investigator-assessed: 19.2%
[7]; investigator assessment
  median PFS longer than in the placebo cohort: 7.2 months
  reduction of the risk of disease progression/death vs placebo: 50.9% and 51%
[7]; investigator assessment, listed as surufatinib
  reduction of the risk of disease progression/death vs placebo: 51%
[7]; investigator-assessed
  Duration of response: 7.4 months
  Time to response: 3.8 months
  Odds ratio, Disease control rate: 2.1
  Odds ratio, Objective response rate: 12.4
[7]; investigator-assessed, N = 104
  Best overall response: Partial response: 20 n
[7]; investigator, 95% CI
  DCR, OR (odds ratio) vs placebo: 2.1 (0.9, 4.8)
  ORR, OR (odds ratio) vs placebo: 12.4 (1.8, 522.8)
